Measurements published in patent US12297164B2, “Benzidine compound and application thereof” (Guangzhou IMD therapeutics Co., Ltd., priority 2019, dated 2025).
Like-named read-outs stand apart in the source and are kept apart here.

How the values were obtained:
[1] = biological target: T1, RORγ (Homo sapiens (Human), UniProt P51449); assay: AlphaScreen inhibitory activity on RORγ protein; type: biochemical; settings: RORγ 200 nM, bSRC1-4 50 nM
Method: Experimental materials: target protein RORγ with the final concentration of 200 nM; experimental buffer (10×) MOPS (500 mM) PH 7.4, CHAPS (0.5 mM), NaF (500 mM), and
The mixture was centrifuged at room temperature at 1000 rpm for 1 minute to make the system fully mixed. After being wrapped in tin foil, the mixture was incubated in the dark for 1.5 hours.
Target sequence in this assay (P51449 whole entry): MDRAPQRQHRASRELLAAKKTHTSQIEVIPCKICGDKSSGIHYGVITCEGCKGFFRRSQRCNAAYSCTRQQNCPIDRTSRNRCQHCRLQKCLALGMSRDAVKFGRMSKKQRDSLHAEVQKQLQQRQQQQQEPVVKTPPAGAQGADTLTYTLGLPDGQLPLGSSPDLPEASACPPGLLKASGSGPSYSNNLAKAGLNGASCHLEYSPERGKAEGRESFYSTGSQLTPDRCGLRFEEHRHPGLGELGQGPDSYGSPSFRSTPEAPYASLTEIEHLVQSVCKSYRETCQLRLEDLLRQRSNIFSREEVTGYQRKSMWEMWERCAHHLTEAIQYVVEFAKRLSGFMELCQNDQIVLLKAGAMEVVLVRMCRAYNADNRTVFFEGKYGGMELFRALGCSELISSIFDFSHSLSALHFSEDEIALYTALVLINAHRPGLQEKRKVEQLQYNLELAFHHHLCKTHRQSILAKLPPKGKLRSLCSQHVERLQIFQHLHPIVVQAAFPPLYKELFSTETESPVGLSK

[2] = biological target: T1, RORγ; assay: Luciferase double reporter gene assay (Gal4-RORγLBD) in 293T cells; type: cell-based; settings: 24 hours of incubation
Method: The cells were cultured in a 96-well plate one day before transfection, with a cell density of 1.5×10^4 cells/well. After 24 hours of adherent growth, the cells were subjected to transient transfection by using the method of double reporter gene co-transfection with the transfection reagent of Lipo-fectamine 2000, where the transfection reagent and plasmids were diluted with Opti-MEM reagent, respectively. […] Each sample had 3 duplicate wells.
Target sequence in this assay (P51449 269-508): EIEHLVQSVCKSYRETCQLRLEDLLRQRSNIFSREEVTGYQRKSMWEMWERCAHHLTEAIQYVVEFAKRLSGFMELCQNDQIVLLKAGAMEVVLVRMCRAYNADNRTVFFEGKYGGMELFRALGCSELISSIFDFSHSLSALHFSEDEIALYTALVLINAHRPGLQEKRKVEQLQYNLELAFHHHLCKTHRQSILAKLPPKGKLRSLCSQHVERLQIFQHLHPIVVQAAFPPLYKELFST

[3] = biological target: T1, RORγ; assay: TSA detection (thermal shift); type: binding; settings: protein 10 μM
Method: Experimental materials: hRORγ protein, fluorescent dye Sypro Orange, 10p buffer, ultrapure water, and HSP-96 well reaction plates.
Experimental method: The diluted protein (with the final concentration of 10 μM), fluorescent dye (with the final concentration of 5×), 10× TSA buffer, and double distilled water were prepared into a mixed solution with final component volumes of 1 μL, 1 μL, 1 μL, and 2 μL, receptively. The mixed solution was transferred to an HSP-96 well reaction plate, 5 μL each well. The ligand, i.e., small molecule compound, was added, 5 μL per well, with the final concentration of 200 µM. The mixture was centrifuged at room temperature at 1000 rpm for 1 minute to make the system fully mixed. The mixture was placed on an ice bath in low light for more than 30 minutes, and after that, put into RT-PCR instrument for testing. The temperature was set from 30° C. to 80° C., and the mixture was detected every time the temperature was raised by 0.5° C. and every 5 seconds.
Target sequence in this assay (P51449 whole entry): as the sequence (P51449 whole entry) above

[4] = system: 293T (human renal epithelial cell line transfected with adenovirus E1A gene, expressing SV40 large T antigen); assay: Cell-Titer GLO cell inhibition; type: cell-based; settings: Homo sapiens, HEK-293T
Method: (§1) Experimental materials: fluorescence signal detection instrument: EnSpire Alpha 2390 multifunctional microplate reader (produced by Perkin Elmer Company); 384-well bottom permeable microwell plate; Cell-Titer GLO luminescent reagent; cancer cells to be tested; medium and fetal bovine serum required for cell culture.
(§2) […]. After incubation with the compound for 72 to 144 hours, Cell-Titer GLO reagent 25-T was added to each well, and the plate was shaken for 20 minutes to lyse the cells. After incubation for 10 minutes, the cells were centrifuged for 1 minute, the signal value of luminescence 384 was measured. The inhibition curve was fitted by GraphPad Prism software to obtain IC50.

[5] = system: A549 (non-small cell lung cancer); assay: Cell-Titer GLO cell inhibition; type: cell-based; settings: Homo sapiens
Method: as §1, §2

[6] = system: Cos7 (African green monkey kidney cells); assay: Cell-Titer GLO cell inhibition; type: cell-based; settings: Chlorocebus sabaeus, COS-7
Method: as §1, §2

[7] = system: H1975 (lung cancer cells); assay: Cell-Titer GLO cell inhibition; type: cell-based; settings: Homo sapiens, NCI-H1975
Method: as §1, §2

[8] = system: HFL-1 (lung fibroblasts); assay: Cell-Titer GLO cell inhibition; type: cell-based; settings: Homo sapiens, HFL1
Method: as §1, §2

[9] = system: HL-7702 (liver epithelial cells); assay: Cell-Titer GLO cell inhibition; type: cell-based; settings: Homo sapiens, L02
Method: as §1, §2

[10] = system: HT-29 (colon cancer); assay: Cell-Titer GLO cell inhibition; type: cell-based; settings: Homo sapiens
Method: as §1, §2

[11] = system: Hela (cervical cancer cells); assay: Cell-Titer GLO cell inhibition; type: cell-based; settings: Homo sapiens
Method: as §1, §2

[12] = system: Hs578T (triple negative breast cancer); assay: Cell-Titer GLO cell inhibition; type: cell-based; settings: Homo sapiens, Hs-578T
Method: as §1, §2

[13] = system: MCF-7 (ER + breast cancer); assay: Cell-Titer GLO cell inhibition; type: cell-based; settings: Homo sapiens, MCF7
Method: as §1, §2

[14] = system: MDA-MB-231 (triple negative breast cancer); assay: Cell-Titer GLO cell inhibition; type: cell-based; settings: Homo sapiens
Method: as §1, §2

[15] = system: MV-4-11 (acute leukemia); assay: Cell-Titer GLO cell inhibition; type: cell-based; settings: Homo sapiens, MV4-11
Method: as §1, §2

[16] = system: U2OS (osteosarcoma); assay: Cell-Titer GLO cell inhibition; type: cell-based; settings: Homo sapiens
Method: as §1, §2

[17] = system: VcaP (AR-positive prostate cancer); assay: Cell-Titer GLO cell inhibition; type: cell-based; settings: Homo sapiens, VCaP
Method: as §1, §2

[18] = system: Du145 (AR-negative prostate cancer); assay: Cell-Titer GLO cell inhibition; type: cell-based; settings: Homo sapiens, DU-145
Description: (§3) The inhibition curve was fitted by GraphPad Prism software to obtain IC50.

[19] = system: PC-3 (AR-negative prostate cancer); assay: Cell-Titer GLO cell inhibition; type: cell-based
Description: as §3

[20] = biological target: T1, RORγ; assay: ITC binding activity; settings: read-out: Kd ITC, 25° C., pH 7.5
Target sequence in this assay (P51449 whole entry): as above

[21] = Pharmacokinetics in SD rats
Method: MATERIALS: Pharmacokinetic analysis was performed by Medicilon Corporation in Shanghai. Twelve Sprague and Dawley rats were provided by Super-B&K laboratory animal Corp. Ltd in Shanghai.
Experimental method: The compound was dissolved in DMSO:PEG 400:20% HP-400 (5:40:55, v:v:v) to serve as a stock solution (0.4 mg/ml, intravenous injection; 1 mg/ml, oral administration). The stock solution was administrated orally to three SD rats at a dose of 10 mg/kg, and administrated intravenously to three SD rats at a single dose of 2 mg/kg. Blood was collected from the jugular vein before oral administration and at 0.25, 0.5, 1, 2, 4, 6, 8, and 24 hours after oral administration. Blood was collected from the jugular vein before intravenous injection and at 0.083, 0.25, 0.5, 1, 2, 4, 6, 8, and 24 hours after intravenous injection. About 200 μL of blood sample was collected into a heparinized tube and immediately centrifuged at 8000 rpm for 6 minutes, and the resulting plasma was stored at −80° C. until analysis.

[22] = biological target: T1, RORγ; assay: Specificity luciferase reporter assay in 293T cells, RORγ; settings: read-out: IC50 RORγ, reporter gene
Target sequence in this assay (P51449 269-508): as the sequence (P51449 269-508) above
Method: The cells were cultured in a 96-well plate one day before transfection, with a cell density of 1.5×10^4 cells/well. After 24 hours of adherent growth, the cells were subjected to transient transfection by using the method of double reporter gene co-transfection with the transfection reagent of Lipo-fectamine 2000, and the transfection reagent and plasmids were diluted with Opti-MEM reagent, respectively. Gal4-RORγLBD was 25 ng per well; PG5-luc gene was 25 ng per well; and Renilla was 5 ng per well. After 24 hours of co-transfection, different concentrations of compounds were added. After 24 hours of incubation, Luciferase double reporter gene detection kit was used to detect luminescence signals. Each sample had 3 duplicate wells. The IC50 value (half inhibitory concentration) was calculated by software.

[23] = system: 22Rv1 (AR-positive prostate cancer); assay: Cell-Titer GLO cell inhibition; type: cell-based; settings: Homo sapiens
Description: as §3

[24] = SD rats, intravenous injection, 2 mg/kg
[25] = Sprague-Dawley, rat, in vivo, iv, 2 mg/kg
[26] = Sprague-Dawley, rat, in vivo, po, 10 mg/kg

IC50 [1]	IC50 [2]	ΔTm [3]	SMILES	IC50 [5]	IC50 [6]	IC50 [7]	IC50 [8]	IC50 [9]	IC50 [10]	IC50 [11]	IC50 [12]	IC50 [13]	IC50 [14]	IC50 [15]	IC50 [16]	IC50 [17]	IC50 [18]	IC50 [19]	other results
2680 nM	4160 nM	1.5 °C	Nc1ccc(CC(=O)Nc2ccc(-c3ccc(C(O)(C(F)(F)F)C(F)(F)F)cc3F)cc2)cc1 [Example 5, 2-(4-aminophenyl)-N-(2′-fluoro-4′-(1,1,1,3,3,3-hexafluoro-2-hydroxypropan-2-yl)-[1,1′-biphenyl]-4-yl)acetamide]	–	–	–	–	–	–	–	–	–	–	–	–	–	–	–	–
–	–	–	CCS(=O)(=O)c1ccc(CC(=O)Nc2ccc(-c3ccc(C(O)(C(F)(F)F)C(F)(F)F)cc3F)cc2)cc1 [Example 2, 2-(4-(ethylsulfonyl)phenyl)-N-(2′-fluoro-4′-(1,1,1,3,3,3-hexafluoro-2-hydroxypropan-2-yl)-[1,1 1,1′-biphenyl]-4-yl)acetamide]	7.08 µM	29 µM	16 µM	~31.9 µM	~50 µM	6.07 µM	25.1 µM	11.9 µM	10.5 µM	~80 µM	9.48 µM	15.9 µM	13 µM	11.5 µM	15 µM	IC50 [4]: 6.22 µM; IC50 [23]: 14.5 ± 1.1 µM
5170 nM	960 nM	1.5 °C	Nc1ccccc1CC(=O)Nc1ccc(-c2ccc(C(O)(C(F)(F)F)C(F)(F)F)cc2F)cc1 [Example 6, 2-(2-aminophenyl)-N-(2′-fluoro-4′-(1,1,1,3,3,3-hexafluoro-2-hydroxypropan-2-yl)-[1,1′-biphenyl]-4-yl)acetamide]	–	–	–	–	–	–	–	–	–	–	–	–	–	–	–	–

SMILES	IC50 [1]	IC50 [2]	ΔTm [3]	IC50 [5]	IC50 [6]	IC50 [7]	IC50 [8]	IC50 [9]	IC50 [10]	IC50 [11]	IC50 [12]	IC50 [13]	IC50 [14]	IC50 [15]	IC50 [16]	IC50 [17]	IC50 [18]	IC50 [19]	other results
CS(=O)(=O)c1ccc(CC(=O)Nc2ccc(-c3ccc(C(O)(C(F)(F)F)C(F)(F)F)cc3F)cc2)cc1 [Example 1, N-(2′-fluoro-4′-(1,1,1,3,3,3-hexafluoro-2-hydroxypropan-2-yl)-[1,1′-biphenyl]-4-yl)-2-(4-(methylsulfonyl)phenyl)acetamide]	2280 ± 50 nM	120 nM	7.8 °C	22 µM	40 µM	24 µM	30 µM	~34.6 µM	14.6 µM	31.4 µM	18.4 µM	13.3 µM	~34.7 µM	4.82 µM	34.5 µM	12.8 µM	19.1 µM	16 µM	IC50 ([4]; 293T, ~ = estimate, read-out: IC50): 15.3 µM; Kd [20]: 560 nM; Cl [21, 24]: 193.73 ± 12.28 mL/h/kg; Vz [21, 24]: 3540 ± 271 mL/kg; F ([21]; SD rats, oral administration 10 mg/kg vs intravenous 2 mg/kg): 51.91%; Tmax ([21]; SD rats, oral administration, 10 mg/kg): 320 ± 139 min; AUC(0-inf) [21, 25]: 10400 ± 664 ng·h/mL; AUC(0-t) [21, 25]: 7660 ± 329 ng·h/mL; Cmax [21, 25]: 980 ± 53.2 ng/mL; Tmax [21, 25]: 4.8 min; half-life [21, 25]: 763 ± 72.6 min; AUC(0-inf) [21, 26]: 24500 ± 5810 ng·h/mL; AUC(0-t) [21, 26]: 21600 ± 3950 ng·h/mL; Cmax [21, 26]: 1420 ± 161 ng/mL; half-life [21, 26]: 520.2 ± 3 min; IC50 [22]: 120 ± 30 nM
